Measurements reported in the OPERA property sets (Mansouri et al. 2018).

**Q.** With `CCCCCN1C(=O)CC2CCC(C)C3CCC4(C)OOC23C1O4` (stereo not given) as the compound, how does the logP read?
**A.** 4.24

**Q.** For `CC1CCC2CC(=O)N(CCCc3ccccc3)C3OC4(C)CCC1C23OO4` (stereo not given), which logP is on record?
**A.** 4.39

**Q.** With `CC1CCC2CC(=O)N(Cc3ccc(Cl)cc3)C3OC4(C)CCC1C23OO4` (stereo not given) as the compound, how does the logP read?
**A.** 4.32

**Q.** With `CC1CCC2CC(=O)N(CC(=O)O)C3OC4(C)CCC1C23OO4` (stereo not given) as the compound, how does the logP read?
**A.** 1.75

**Q.** Which logP does the source give for `C[C@@H]1CC[C@H]2[C@@H](C)C(=O)O[C@@H]3O[C@@]4(C)CC[C@@H]1[C@]32OO4` here?
**A.** 2.9

**Q.** With `CCCN1C(=O)CC2CCC(C)C3CCC4(C)OOC23C1O4` (stereo not given) as the compound, how does the logP read?
**A.** 3.4

**Q.** Which logP does the source give for `CO[C@H]1O[C@@H]2O[C@@]3(C)CC[C@H]4[C@H](C)CC[C@@H]([C@H]1C)[C@@]24OO3` here?
**A.** 3.53

**Q.** Which logP does the source give for `CC(C)CN1C(=O)CC2CCC(C)C3CCC4(C)OOC23C1O4` (stereo not given) here?
**A.** 3.66

**Q.** Which logP does the source give for `CC1CCC2CC(=O)N(C)C3OC4(C)CCC1C23OO4` (stereo not given) here?
**A.** 2.76

**Q.** Which logP does the source give for `CC(C)CCN1C(=O)CC2CCC(C)C3CCC4(C)OOC23C1O4` (stereo not given) here?
**A.** 4.16
